Tests used:
Test in all cases: Antimicrobial activity, diffusion Agar technique
Type in all cases: cell-based
Details in all cases: beyond the initial well diameter of 6 mm
[1] = test system: Escherichia coli (RCMB 010054)
Experimental: (§1) The noble metal nanoparticles prepared by the present methods can be formulated into a composition effective as an antifungal and as an antibacterial agent (Gram positive and gram negative). […] The fungal and bacterial inhibition trial was conducted using the diffusion Agar technique. The data are expressed in the form of (M±S.D.): mean±standard deviation; wherein M represents the diameter of the inhibition zone, measured in millimeters (mm) beyond the initial well diameter of 6 mm.

[2] = test system: Streptococcus pneumoniae (RCMB 010011)
Experimental: as §1

[3] = test system: Bacillis subtilis (RCMB 010068)
Experimental: as §1

[4] = test system: Aspergillus fumigatus (RCMB 02567)
Experimental: as §1

## Gentamicin
[1]
  diameter of the inhibition zone (mean ± S.D.): 20.3 ± 0.58 mm

## CC1(C)S[C@@H]2[C@H](NC(=O)[C@H](N)c3ccccc3)C(=O)N2[C@H]1C(=O)O [Ampicillin]
[2]
  diameter of the inhibition zone (mean ± S.D.): 21.0 ± 1.0 mm
[3]
  diameter of the inhibition zone (mean ± S.D.): 31.3 ± 1.5 mm

## C[C@@H]1[C@H](O)[C@@H](C)/C=C/C=C/C=C/C=C/C=C/C=C/C=C/[C@H](O[C@@H]2O[C@H](C)[C@@H](O)[C@H](N)[C@@H]2O)C[C@@H]2O[C@](O)(C[C@@H](O)C[C@@H](O)[C@H](O)CC[C@@H](O)C[C@@H](O)CC(=O)O[C@H]1C)C[C@H](O)[C@H]2C(=O)O [Amphotericin B]
[4]
  diameter of the inhibition zone (mean ± S.D.): 21.7 ± 1.5 mm

Source: US9428819B1, “Method for synthesizing noble metal nanoparticles using dead cancer cells” (KING SAUD UNIVERSITY, priority 2016, dated 2016)
